# Test results: ChEMBL document CHEMBL1201862, “PubChem BioAssay data set” (2004)
# Calls of active or inactive are those of the source.
# How the values were obtained:
# [1] = molecular target: T1, Corticotropin-releasing factor receptor 2/Corticotropin-releasing factor-binding protein (Homo sapiens, UniProt P24387+Q13324); assay: Dose Response confirmation of uHTS hits for small molecule antagonists of the CRF-binding protein and CRF-R2 receptor complex.; type: functional; settings: read-out: IC50_Mean
# T1 sequence (Q13324 whole entry): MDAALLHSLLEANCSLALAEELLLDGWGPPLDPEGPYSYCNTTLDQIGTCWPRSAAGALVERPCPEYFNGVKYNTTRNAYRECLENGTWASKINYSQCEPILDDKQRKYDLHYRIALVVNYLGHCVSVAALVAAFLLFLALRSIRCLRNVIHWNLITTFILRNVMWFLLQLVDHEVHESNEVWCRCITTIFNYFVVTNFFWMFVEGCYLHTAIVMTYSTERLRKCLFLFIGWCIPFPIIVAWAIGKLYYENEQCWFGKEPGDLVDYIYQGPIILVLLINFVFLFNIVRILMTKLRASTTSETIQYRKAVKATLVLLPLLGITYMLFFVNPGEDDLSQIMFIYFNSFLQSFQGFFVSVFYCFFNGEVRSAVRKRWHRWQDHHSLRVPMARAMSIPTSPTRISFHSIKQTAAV
# T1 sequence (P24387 whole entry): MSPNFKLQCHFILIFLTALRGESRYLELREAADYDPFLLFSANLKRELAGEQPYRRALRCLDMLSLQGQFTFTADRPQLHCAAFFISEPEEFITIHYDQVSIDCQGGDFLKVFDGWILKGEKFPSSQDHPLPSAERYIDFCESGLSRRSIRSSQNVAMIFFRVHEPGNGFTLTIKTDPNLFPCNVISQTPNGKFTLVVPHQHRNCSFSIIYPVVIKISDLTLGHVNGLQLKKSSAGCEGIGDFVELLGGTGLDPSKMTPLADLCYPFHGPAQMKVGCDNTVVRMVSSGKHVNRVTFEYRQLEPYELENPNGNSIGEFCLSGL
# [2] = molecular target: T1, Corticotropin-releasing factor receptor 2/Corticotropin-releasing factor-binding protein; assay: activators of CRF receptor 2 with binding protein – uHTS hits, confirmation (AID 602473); type: functional; settings: read-out: EC50_Mean
# [3] = molecular target: Luciferin 4-monooxygenase (Photinus pyralis, UniProt P08659); assay: firefly luciferase enzyme inhibitors, dose response, biochemical, luminescence (AID 1891)
# Sequence of Luciferin 4-monooxygenase (P08659 whole entry): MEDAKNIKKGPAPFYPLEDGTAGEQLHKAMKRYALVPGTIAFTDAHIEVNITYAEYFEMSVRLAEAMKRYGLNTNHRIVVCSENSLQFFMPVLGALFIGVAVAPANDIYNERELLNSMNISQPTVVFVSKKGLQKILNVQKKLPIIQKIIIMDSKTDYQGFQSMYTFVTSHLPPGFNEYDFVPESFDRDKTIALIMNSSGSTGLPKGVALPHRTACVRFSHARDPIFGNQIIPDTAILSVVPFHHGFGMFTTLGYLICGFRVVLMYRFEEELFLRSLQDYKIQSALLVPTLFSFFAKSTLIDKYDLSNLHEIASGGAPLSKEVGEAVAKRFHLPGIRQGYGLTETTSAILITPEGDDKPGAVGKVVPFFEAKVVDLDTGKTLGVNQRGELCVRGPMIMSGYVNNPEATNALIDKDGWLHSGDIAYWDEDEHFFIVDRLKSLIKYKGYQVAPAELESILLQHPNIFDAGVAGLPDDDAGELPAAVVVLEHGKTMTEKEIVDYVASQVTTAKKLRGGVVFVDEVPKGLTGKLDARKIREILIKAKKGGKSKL
# [4] = Luminescence Cell-Based Dose Confirmation HTS to Identify Inhibitors of Platelet Dense Granule Release. [Related pubchem assays: 1663 (Primary HTS), 1678 (Summary of Project)]; type: functional
# [5] = growth suppression of PTEN-null colon cells, dose response, cell-based, HCT116 PTEN knockout (AID 1047); type: functional;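 note: HCT116 colon tumor cells with PTEN knocked out; cells exposed to compound for 60 hours before readout; potency for loss of cell viability measured by luminescence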
# [6] = growth suppression of beta-catenin-knockout colon cells, dose response, cell-based, HCT116, human colon tumor (AID 1045); type: functional;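 note: HCT116 colon tumor cells with beta catenin knocked out; cells exposed to compound for 60 hours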
# cells = type: functional
# [7] = inhibitors of intracellular T. cruzi replication, confirmation, NIH3T3 host cells, beta-gal luminescence (AID 2044); type: functional, cell-based;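 note: intracellular parasites grown in NIH/3T3 mouse fibroblasts as host cells; luminescent beta-galactosidase reporter signal from transgenic T. cruzi replicating inside host cells; inhibitors lower the luminescence signal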
# [8] = cytotoxicity toward NIH3T3 fibroblasts, dose response, counter-screen, cell-based, ATP luminescence, mouse fibroblasts (AID 2010); type: functional;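 note: cells exposed to compound for about 90 hours before reading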
# [9] = molecular target: T2, Heat shock factor protein 1 (Mus musculus, UniProt P38532); assay: inhibition of MG132-induced HSE-luciferase signal, confirmation, cell-based, NIH3T3, luminescence, dose retest (AID 2382); type: functional;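 note: NIH3T3 fibroblasts with HSF1-driven luciferase reporter stressed by proteasome inhibitor MG132; luminescence from HSF1-driven luciferase expression after 8 hours of MG132 stress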
# T2 sequence (P38532 whole entry): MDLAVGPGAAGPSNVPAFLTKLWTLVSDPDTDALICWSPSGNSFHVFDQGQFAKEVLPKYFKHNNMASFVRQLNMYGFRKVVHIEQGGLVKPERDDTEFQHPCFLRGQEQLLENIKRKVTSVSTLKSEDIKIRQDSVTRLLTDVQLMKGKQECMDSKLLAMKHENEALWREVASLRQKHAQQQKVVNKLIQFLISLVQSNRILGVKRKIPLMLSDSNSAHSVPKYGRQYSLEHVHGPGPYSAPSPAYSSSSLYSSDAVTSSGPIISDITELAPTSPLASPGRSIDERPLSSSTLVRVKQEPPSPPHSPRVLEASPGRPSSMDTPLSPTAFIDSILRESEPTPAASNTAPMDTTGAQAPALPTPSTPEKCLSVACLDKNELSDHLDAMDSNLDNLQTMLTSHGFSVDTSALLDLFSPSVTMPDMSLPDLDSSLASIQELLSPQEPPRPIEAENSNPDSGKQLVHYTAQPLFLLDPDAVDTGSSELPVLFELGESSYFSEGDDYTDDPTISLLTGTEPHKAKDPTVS
# [10] = HEp-2 cell cytotoxicity, dose response, cytotoxicity control for RSV inhibitor project, HTS (AID 2410); type: functional; settings: human respiratory syncytial virus
# H9c2 = assay: cells; type: functional, cell-based; settings: Rattus norvegicus, H9c2, Myocardium;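 note: confirmatory concentration-response retest of ultra-high-throughput screening hits for modulation of myocardial damage; cell death induced by hydrogen peroxide oxidative stress; compound pretreatment for 60 min then peroxide exposure for 2 h; potency is for protecting the cells against peroxide damage rather than for killing them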
# Cytochrome P450 2D6 = Cytochrome P450 2D6 (Homo sapiens, UniProt P10635);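 note: CYP2D6 member of a cytochrome P450 panel assay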
# Sequence of Cytochrome P450 2D6 (P10635 whole entry): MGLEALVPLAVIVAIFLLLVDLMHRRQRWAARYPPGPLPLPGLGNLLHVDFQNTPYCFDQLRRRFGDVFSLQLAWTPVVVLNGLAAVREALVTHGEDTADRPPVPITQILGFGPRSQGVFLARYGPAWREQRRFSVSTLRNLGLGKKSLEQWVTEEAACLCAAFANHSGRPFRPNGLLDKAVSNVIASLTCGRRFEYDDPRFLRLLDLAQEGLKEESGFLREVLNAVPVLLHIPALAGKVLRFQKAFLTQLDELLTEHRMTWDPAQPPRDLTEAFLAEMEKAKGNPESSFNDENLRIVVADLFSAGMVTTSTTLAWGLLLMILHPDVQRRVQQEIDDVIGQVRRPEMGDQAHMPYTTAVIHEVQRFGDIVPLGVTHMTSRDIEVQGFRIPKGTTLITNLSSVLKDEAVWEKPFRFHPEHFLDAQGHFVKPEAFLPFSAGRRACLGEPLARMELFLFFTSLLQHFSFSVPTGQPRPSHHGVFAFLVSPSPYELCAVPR
compound,measurement,setting,value
Cc1noc(C)c1S(=O)(=O)N1CCC(C(=O)N2CCN(c3ccc(F)cc3)CC2)CC1,IC50,[1],> 47.1 µM (inactive)
same,EC50,[2],> 53 µM (inactive)
COc1ccc(C(=O)Nc2sc(C)c(C)c2CN2CCOCC2)cc1,EC50,[3],> 112 µM (not active)
same,EC50,[4],12.6 µM (active)
CCN(CC)C(=O)CSc1ncnc2c(-c3ccc(OC)cc3)nsc12,EC50,[3],> 112 µM (not active)
same,EC50,[4],> 112 µM (not active)
CCCCc1ccc(C2C3=C(CC(C)(C)CC3=O)N=C3C2=C(O)c2ccccc23)cc1 (stereo unspecified),EC50,[5],13.2 µM (active)
same,EC50,[6],18.2 µM (active)
COc1ccc(-c2nnc(NC(=O)C3=COCCO3)o2)cc1,IC50,cells,8.62 µM (active)
O=C(Nc1cnn(Cc2c(Cl)cccc2Cl)c1)C(c1ccccc1)c1ccccc1,EC50,[3],> 112 µM (not active)
same,EC50,[4],> 112 µM (not active)
same,EC50,[7],2.06 µM (active)
same,EC50,[8],> 60 µM (not active)
COc1cccc(N2CCN(Cc3cccc(Cl)c3)CC2)c1,EC50,[3],> 112 µM (not active)
same,EC50,[4],> 112 µM (not active)
COc1ccc(C(C)=O)cc1CSc1nnc2c(Cl)cc(Cl)cn12,IC50,[1],> 47.1 µM (inactive)
same,EC50,[2],> 53 µM (inactive)
CCOc1ccc(-c2cc(C(=O)NCC3CCCO3)c3ccccc3n2)cc1 (stereo unspecified),EC50,[3],47.2 µM (active)
same,EC50,[4],> 112 µM (not active)
O=C(Nc1ccccc1N1CCCCC1)C1CCN(C(=O)c2ccc(Cl)cc2)CC1,EC50,[9],> 195 µM (not active)
same,IC50,[1],> 47.1 µM (inactive)
same,EC50,[2],> 53 µM (inactive)
O=C(COc1ccccc1F)N1CCN(CCN2C(=O)c3cccc4cccc(c34)C2=O)CC1,IC50,[1],> 47.1 µM (inactive)
same,EC50,[2],> 53 µM (inactive)
Cn1c(=O)oc2cc(S(=O)(=O)N3CCN(c4cccc(Cl)c4)CC3)ccc21,EC50,[3],> 112 µM (not active)
same,EC50,[4],> 112 µM (not active)
C#CCN1C(=O)C(O)(CC(=O)c2ccc(OC)c(OC)c2)c2ccccc21 (stereo unspecified),EC50,[5],18 µM (active)
same,EC50,[6],21.2 µM (active)
COc1ccc(-c2cc(C(F)(F)F)c(C#N)c(SCC(=O)Nc3nc(C)co3)n2)cc1,EC50,[5],10.9 µM (active)
same,EC50,[6],9.24 µM (active)
CC(C)c1ccc(NC(=S)NN2CCOCC2)cc1,IC50,[1],> 47.1 µM (inactive)
same,EC50,[2],> 53 µM (inactive)
CN1C(c2ccccc2)CC(=NO)CC1c1ccccc1 (stereo unspecified),IC50,cells,16.6 µM (active)
Cc1ccccc1CNC(=O)Nc1cccs1,IC50,[1],> 47.1 µM (inactive)
same,EC50,[2],> 53 µM (inactive)
Cc1ccc(CNC(=O)CN(c2ccc(C)cc2)S(=O)(=O)c2c(C)nn(C)c2C)cc1,IC50,[1],> 47.1 µM (inactive)
same,EC50,[2],> 53 µM (inactive)
Cc1ccc(-n2nc3ccc(NC(=O)/C=C/c4ccco4)cc3n2)cc1C,EC50,[5],8.83 µM (active)
same,EC50,[6],11.7 µM (active)
CC(=O)N1N=C(C)CC1c1ccc(OCc2ccccc2)cc1 (stereo unspecified),IC50,[1],> 47.1 µM (inactive)
same,EC50,[2],> 53 µM (inactive)
COc1cccc(-c2nn(-c3ccccc3)cc2C(=O)O)c1,EC50,[3],> 112 µM (not active)
same,EC50,[4],> 112 µM (not active)
Cn1c(=O)oc2cc(S(=O)(=O)NCCC(=O)NCc3ccc(F)cc3)ccc21,IC50,[1],> 47.1 µM (inactive)
same,EC50,[2],> 53 µM (inactive)
CC(C)c1nnc(NC(=O)CCC(=O)N2CCN(c3ccc(F)cc3)CC2)s1,EC50,[3],> 112 µM (not active)
same,EC50,[4],> 112 µM (not active)
CCOC(=O)c1c(C)c(-c2ccccc2)n(CC(=O)N2CCCC2)c1C,EC50,[3],> 112 µM (not active)
same,EC50,[4],> 112 µM (not active)
Cc1nnc(SCC(=O)N(C)c2c(N)n(Cc3ccccc3)c(=O)[nH]c2=O)n1Cc1ccccc1,IC50,[1],> 47.1 µM (inactive)
same,EC50,[2],> 53 µM (inactive)
Cc1nc2cc(N3CCCCC3)c(NC(=O)c3ccncc3)cc2c(=O)n1Cc1ccc(Cl)cc1,EC50,[5],3.49 µM (active)
same,EC50,[6],3.8 µM (active)
COc1cc(/C=C(\C#N)c2nc3ccccc3[nH]2)cc(Br)c1OCc1ccccc1,EC50,[5],15.8 µM (active)
same,EC50,[6],16.7 µM (active)
O=[N+]([O-])c1cc(N=Nc2ccc3ccccc3c2)ccc1O,EC50,[3],0.173 µM (active)
same,EC50,[4],2.24 µM (active)
same,IC50,cells,> 50 µM (active)
CCOC(=O)C(C)Oc1cccc2c(=O)n(CC(=O)NCCc3ccc(OC)c(OC)c3)ccc12 (stereo unspecified),EC50,[3],> 112 µM (not active)
same,EC50,[4],> 112 µM (not active)
COc1ccccc1CNC(=O)c1cccc(N(C)C)c1,EC50,[3],> 112 µM (not active)
same,EC50,[4],> 112 µM (not active)
CC(=O)c1cccc(Nc2nc3ccccc3n3cnnc23)c1,CC50,[10],43.9 µM (active)
same,IC50,H9c2,> 79 µM (inactive)
same,IC50,[1],< 0.368 µM (active)
same,EC50,[2],> 53 µM (inactive)
CCOC(=O)COc1ccc2c(c1)c(C(C)=O)c(C)n2Cc1ccccc1,IC50,cells,7.41 µM (active)
CCCCOC(=O)c1ccc(NC(=O)c2nn(C)cc2Br)cc1,IC50,cells,12.2 µM (active)
CCCCn1c(SCN2C(=O)c3ccccc3C2=O)nc2cc(S(N)(=O)=O)ccc21,EC50,[3],> 112 µM (not active)
same,EC50,[4],> 112 µM (not active)
Cc1cc(F)ccc1NC(=O)c1cc(S(=O)(=O)N2CCCC2)cn1C,EC50,[3],> 112 µM (not active)
same,EC50,[4],> 112 µM (not active)
O=C1N(c2ccc3c(c2)OCCO3)C(c2ccccc2)C1(F)F (stereo unspecified),IC50,cells,7.43 µM (active)
CCOC(=O)c1csc(-c2snnc2C)n1,IC50,cells,13.2 µM (active)
Cc1ccc(C(=O)N2CCN(c3ccc([N+](=O)[O-])c(NCc4ccco4)c3)CC2)cc1,EC50,[3],41.3 µM (active)
same,EC50,[4],> 112 µM (not active)
COc1cc2c(cc1OC)-c1cc(NC3CC3)nc(=O)n1CC2,EC50,[3],> 112 µM (not active)
same,EC50,[4],17.6 µM (active)
CCCCC1(CCCC)C(=O)N=C(Nc2cccc(C)c2)NC1=O,EC50,[5],12.1 µM (active)
same,EC50,[6],12.2 µM (active)
same,IC50,[1],> 47.1 µM (inactive)
same,EC50,[2],3.98 µM (active)
same,AC50,Cytochrome P450 2D6,14.1 µM (inconclusive)
CN(Cc1cnccn1)C(=O)CC1C(=O)NCCN1Cc1cccc(Oc2ccccc2)c1 (stereo unspecified),EC50,[3],> 112 µM (not active)
same,EC50,[4],> 112 µM (not active)
CCC(C)C(=O)Nc1nnc(SCC(=O)NC(C)(C)C)s1 (stereo unspecified),IC50,[1],> 47.1 µM (inactive)
same,EC50,[2],> 53 µM (inactive)
COc1ccc(C(=O)CCN2CCCCCC2)cc1,EC50,[6],124 µM (active)
same,IC50,cells,22.2 µM (active)
Cc1ncsc1CCOC(=O)c1ccc([N+](=O)[O-])cc1,IC50,cells,7.56 µM (active)
CCCN(CCC)S(=O)(=O)c1ccc(C(=O)Nc2nnc(CSC)o2)cc1,EC50,[5],14.2 µM (active)
same,EC50,[6],12.7 µM (active)
Cc1ccccc1OCC(=O)OCC(=O)c1ccc[nH]1,IC50,cells,20.3 µM (active)
CC(=O)C1=C(C)N=C(S)NC1c1cc([N+](=O)[O-])ccc1O (stereo unspecified),IC50,[1],> 47.1 µM (inactive)
same,EC50,[2],> 53 µM (inactive)
CCOC(=O)c1c(Nc2ccc(Cl)cc2)sc(/C=C2\C=Nc3ccccc32)c1O,EC50,[5],6.61 µM (active)
same,EC50,[6],6.74 µM (active)
COc1cccc(C(=O)N/N=C/C(Br)=C/c2ccccc2)c1,EC50,[5],6.24 µM (active)
same,EC50,[6],6.47 µM (active)
CCc1nnc(N/N=C/c2ccc(-c3ccc([N+](=O)[O-])cc3)o2)n1N,IC50,cells,12.6 µM (active)
O=C(Nc1nccs1)c1ccccn1,IC50,cells,9.47 µM (active)
